Test results as given in the NIST ThermoML archive (doi:10.1021/je5000692).
± gives the expanded uncertainty stated by the source.

Test: relative permittivity at various frequencies (dimensionless)
Conditions: Liquid, Frequency=0.001 MHz, Coaxial cylinder capacitor

CCCCCCCC [octane]
Conditions | relative permittivity
303.07 K, 5010 kPa | 1.94148 ± 0.0007
303.07 K, 10050 kPa | 1.94875 ± 0.0007
303.07 K, 20060 kPa | 1.96184 ± 0.00072
303.07 K, 25030 kPa | 1.9682 ± 0.00072
333.25 K, 5040 kPa | 1.90899 ± 0.00072
333.25 K, 6780 kPa | 1.91211 ± 0.00071
333.25 K, 10020 kPa | 1.91777 ± 0.0007
333.25 K, 20050 kPa | 1.93287 ± 0.0007
333.25 K, 25050 kPa | 1.93989 ± 0.0007
373.16 K, 5040 kPa | 1.85755 ± 0.00069
373.16 K, 10030 kPa | 1.8684 ± 0.00069
373.16 K, 20030 kPa | 1.88737 ± 0.00069
373.16 K, 25060 kPa | 1.89562 ± 0.00071
398.17 K, 5010 kPa | 1.8243 ± 0.00067
398.17 K, 10010 kPa | 1.8374 ± 0.00067
398.17 K, 20050 kPa | 1.85955 ± 0.00069
398.17 K, 25040 kPa | 1.87023 ± 0.00069
